Test results as given in US20090018111A1, “Novel Antimicrobial Medicament” (priority 2004, published 2009).
Like-named read-outs stand apart in the source and are kept apart here.

Key:
Assay in all cases: Sensitivity test (agar dilution)
M. luteus ATCC9341 = format: cell-based, Micrococcus luteus; conditions: Micrococcus luteus
Outline: (§1)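 FIC index is computed from MICs of each drug alone versus in combination (≤1 = enhancement, >1 = none). MICs are measured on Mueller Hinton agar plates carrying twofold dilution series and inoculated with about 10^6 CFU/ml bacterial suspension.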

E. faecalis ATCC19433 = format: cell-based, Enterococcus faecalis
Outline: as §1

B. subtilis ATCC6633 = format: cell-based, Bacillus subtilis; conditions: Bacillus subtilis
Outline: as §1

E. coli ML1410 = format: cell-based, Escherichia coli; conditions: Escherichia coli, ML1410, Concomitant (AZT:SM = 1:1); E. coli ML1410; read-out: MIC concomitant
Outline: as §1

SMILES: C[C@H]1C=C(c2csc(SC3=C(C(=O)O)N4C(=O)[C@H]([C@@H](C)O)[C@H]4[C@H]3C)n2)CN1 [SM, (4R,5S,6S)-6-[(1R)-1-Hydroxyethyl]-4-methyl-3-({4-[(5S)-5-methyl-2,5-dihydro-1H-pyrrol-3-yl]-1,3-thiazol-2-yl}sulfanyl)-7-oxo-1-azabicyclo[3.2.0]hept-2-ene-2-carboxylic acid]
- MIC (M. luteus ATCC9341; ATCC9341, Concomitant (AZT:SM = 1:1), M. luteus ATCC9341, read-out: MIC concomitant): ≤ 0.002 µg/mL
- MIC (M. luteus ATCC9341; ATCC9341, Concomitant (BIPM:SM = 1:1), M. luteus ATCC9341, read-out: MIC concomitant): 0.004 µg/mL
- MIC (M. luteus ATCC9341; ATCC9341, Concomitant (CAZ:SM = 1:1), M. luteus ATCC9341, read-out: MIC concomitant): ≤ 0.002 µg/mL
- MIC (M. luteus ATCC9341; ATCC9341, Concomitant (CPFX:SM = 1:1), M. luteus ATCC9341, read-out: MIC concomitant): 0.004 µg/mL
- MIC (M. luteus ATCC9341; ATCC9341, Concomitant (DRPM:SM = 1:1), M. luteus ATCC9341, read-out: MIC concomitant): ≤ 0.002 µg/mL
- MIC (M. luteus ATCC9341; ATCC9341, Concomitant (IPM:SM = 1:1), read-out: MIC): 0.004 µg/mL
- MIC (M. luteus ATCC9341; ATCC9341, Concomitant (MEPM:SM = 1:1), read-out: MIC): ≤ 0.016 µg/mL
- MIC (M. luteus ATCC9341; ATCC9341, Concomitant (MEPM:SM = 1:2), read-out: MIC): ≤ 0.031 µg/mL
- MIC (M. luteus ATCC9341; ATCC9341, Concomitant (MEPM:SM = 1:4), read-out: MIC): ≤ 0.063 µg/mL
- MIC (M. luteus ATCC9341; ATCC9341, Concomitant (PAPM:SM = 1:1), M. luteus ATCC9341, read-out: MIC concomitant): ≤ 0.002 µg/mL
- MIC (M. luteus ATCC9341; ATCC9341, Concomitant (PIPC:SM = 1:1), M. luteus ATCC9341, read-out: MIC concomitant): ≤ 0.002 µg/mL
- MIC (M. luteus ATCC9341; ATCC9341, Concomitant drug (MEPM:SM = 2:1), read-out: MIC): ≤ 0.008 µg/mL
- MIC (M. luteus ATCC9341; ATCC9341, alone, read-out: MIC): ≤ 0.008 µg/mL
- MIC (M. luteus ATCC9341; ATCC9341, drug alone, M. luteus ATCC9341, read-out: MIC alone): 0.004 µg/mL
- MIC (E. faecalis ATCC19433; Enterococcus faecalis, ATCC19433, Concomitant (AZT:SM = 1:1), E. faecalis ATCC19433, read-out: MIC concomitant): 1 µg/mL
- MIC (E. faecalis ATCC19433; Enterococcus faecalis, ATCC19433, Concomitant (BIPM:SM = 1:1), E. faecalis ATCC19433, read-out: MIC concomitant): 1 µg/mL
- MIC (E. faecalis ATCC19433; Enterococcus faecalis, ATCC19433, Concomitant (CAZ:SM = 1:1), E. faecalis ATCC19433, read-out: MIC concomitant): 1 µg/mL
- MIC (E. faecalis ATCC19433; Enterococcus faecalis, ATCC19433, Concomitant (CPFX:SM = 1:1), E. faecalis ATCC19433, read-out: MIC concomitant): 0.5 µg/mL
- MIC (E. faecalis ATCC19433; Enterococcus faecalis, ATCC19433, Concomitant (DRPM:SM = 1:1), E. faecalis ATCC19433, read-out: MIC concomitant): 1 µg/mL
- MIC (E. faecalis ATCC19433; Enterococcus faecalis, ATCC19433, Concomitant (IPM:SM = 1:1), read-out: MIC): 0.5 µg/mL
- MIC (E. faecalis ATCC19433; Enterococcus faecalis, ATCC19433, Concomitant (MEPM:SM = 1:1), read-out: MIC): 1 µg/mL
- MIC (E. faecalis ATCC19433; Enterococcus faecalis, ATCC19433, Concomitant (MEPM:SM = 1:2), read-out: MIC): 1 µg/mL
- MIC (E. faecalis ATCC19433; Enterococcus faecalis, ATCC19433, Concomitant (MEPM:SM = 1:4), read-out: MIC): 1 µg/mL
- MIC (E. faecalis ATCC19433; Enterococcus faecalis, ATCC19433, Concomitant (PAPM:SM = 1:1), E. faecalis ATCC19433, read-out: MIC concomitant): 1 µg/mL
- MIC (E. faecalis ATCC19433; Enterococcus faecalis, ATCC19433, Concomitant (PIPC:SM = 1:1), E. faecalis ATCC19433, read-out: MIC concomitant): 0.5 µg/mL
- MIC (E. faecalis ATCC19433; Enterococcus faecalis, ATCC19433, Concomitant drug (MEPM:SM = 2:1), read-out: MIC): 0.5 µg/mL
- MIC (E. faecalis ATCC19433; Enterococcus faecalis, ATCC19433, alone, read-out: MIC): 1 µg/mL
- MIC (E. faecalis ATCC19433; Enterococcus faecalis, ATCC19433, drug alone, E. faecalis ATCC19433, read-out: MIC alone): 2 µg/mL
- MIC (E. faecalis ATCC19433; alone): 2 µg/mL
- MIC alone (E. faecalis ATCC19433; drug alone, E. faecalis ATCC19433): 1 µg/mL
- MIC (B. subtilis ATCC6633; ATCC6633, Concomitant (AZT:SM = 1:1), B. subtilis ATCC6633, read-out: MIC concomitant): ≤ 0.002 µg/mL
- MIC (B. subtilis ATCC6633; ATCC6633, Concomitant (BIPM:SM = 1:1), B. subtilis ATCC6633, read-out: MIC concomitant): ≤ 0.002 µg/mL
- MIC (B. subtilis ATCC6633; ATCC6633, Concomitant (CAZ:SM = 1:1), B. subtilis ATCC6633, read-out: MIC concomitant): ≤ 0.002 µg/mL
- MIC (B. subtilis ATCC6633; ATCC6633, Concomitant (CPFX:SM = 1:1), B. subtilis ATCC6633, read-out: MIC concomitant): 0.004 µg/mL
- MIC (B. subtilis ATCC6633; ATCC6633, Concomitant (DRPM:SM = 1:1), B. subtilis ATCC6633, read-out: MIC concomitant): ≤ 0.002 µg/mL
- MIC (B. subtilis ATCC6633; ATCC6633, Concomitant (IPM:SM = 1:1), read-out: MIC): ≤ 0.002 µg/mL
- MIC (B. subtilis ATCC6633; ATCC6633, Concomitant (MEPM:SM = 1:1), read-out: MIC): ≤ 0.016 µg/mL
- MIC (B. subtilis ATCC6633; ATCC6633, Concomitant (MEPM:SM = 1:2), read-out: MIC): ≤ 0.031 µg/mL
- MIC (B. subtilis ATCC6633; ATCC6633, Concomitant (MEPM:SM = 1:4), read-out: MIC): ≤ 0.063 µg/mL
- MIC (B. subtilis ATCC6633; ATCC6633, Concomitant (PAPM:SM = 1:1), B. subtilis ATCC6633, read-out: MIC concomitant): ≤ 0.002 µg/mL
- MIC (B. subtilis ATCC6633; ATCC6633, Concomitant (PIPC:SM = 1:1), B. subtilis ATCC6633, read-out: MIC concomitant): ≤ 0.002 µg/mL
- MIC (B. subtilis ATCC6633; ATCC6633, Concomitant drug (MEPM:SM = 2:1), read-out: MIC): ≤ 0.008 µg/mL
- MIC (B. subtilis ATCC6633; ATCC6633, alone, read-out: MIC): ≤ 0.008 µg/mL
- MIC (B. subtilis ATCC6633; ATCC6633, drug alone, B. subtilis ATCC6633, read-out: MIC alone): 0.004 µg/mL
- MIC (E. coli ML1410): 0.063 µg/mL
